Read-outs that look alike come from different tables or passages of the source.
Key:
[1] = Berzosertib plasma and urine pharmacokinetics (LC-MS/MS, non-compartmental analysis); format: in vivo, human; conditions: for AUC(0-inf) / Cmax / clearance / Vd / half-life: iv, plasma; for Vd: read-out: Vss
Procedure: PK assessments for berzosertib were conducted during the monotherapy lead-in and during cycles 1 and 2. Blood samples for berzosertib plasma PK assessments were collected following the single-agent dose, from day 1 of combination dosing (pre-dose, 0.5 h before the end of infusion, at end of infusion and 0.5, 1, 2, 3, 7, 23, 47 and 71 h after the end of infusion), on day 9 (pre-dose) and cycle 2 day 2 (pre-dose and 2 h after the end of infusion). Cumulative urine samples were collected for PK assessments on days 2 and 3 of cycle 1 (pre-dose—3, 3–7, 7–11 and 11–23 h). Berzosertib concentrations were quantified using a validated liquid chromatography tandem-mass spectrometry method and plasma PK was characterised by non-compartmental analyses using Phoenix WinNonlin 6.4 (Certara USA Inc, Princeton, NJ, USA).
Safety data, baseline patient demographics and disease characteristics were summarised descriptively for the combination safety set—which included all enrolled patients who received at least one dose of study drug. PK data were collected in the PK analysis set, defined as all enrolled patients who received at least one dose of berzosertib and provided at least one measurable post-dose sample. […] Standard non-compartmental methods were used to determine PK parameters.

[2] = system: patients with advanced solid tumours
From the text: Part A was a 3 + 3 dose-escalation Phase 1 study evaluating the safety, tolerability, pharmacokinetics (PK) and preliminary efficacy of berzosertib in combination with gemcitabine with or without cisplatin (NCT02157792) (Fig. 1). Patients were enrolled in cohorts of three, with subsequent cohort expansion and dose-escalation decisions based on safety review, available PK data and observations of dose-limiting toxicities (DLTs) until the end of treatment cycle 1.
A 7–14-day lead-in period with single ascending doses of intravenous (i.v.) berzosertib was planned to assess the safety of berzosertib monotherapy; the requirement for the lead-in period was removed after review of safety data both during the study and from a concurrent study of berzosertib monotherapy.[17] […] Based on preclinical studies, a starting dose of 18 mg/m^2 and a dosing regimen of i.v. berzosertib on days 2 and 9, ~24 ± 4 h after dosing with gemcitabine ± cisplatin, was selected.[17] […] Patients received i.v. gemcitabine on days 1 and 8, with or without i.v. cisplatin on day 1. […]
Treatment-emergent adverse events (TEAEs) and DLTs were reported using National Cancer Institute (NCI) Common Terminology Criteria for Adverse Events (CTCAE) version 4.0. […] All AEs of any grade were recorded and followed up until resolution. Safety was evaluated throughout treatment and was used to inform dose-escalation decisions. […]

ATR = system: ATR; design: method as in PMID 23222511, PMID 25010037; conditions: inhibitor of ATR; cited from earlier work
[3] = human, 18 mg/m2, berzosertib 18 mg/m^2 i.v., lead-in period, berzosertib alone, mean (% CV), n = 3
[4] = human, 36 mg/m2, berzosertib 36 mg/m^2 i.v., lead-in period, berzosertib alone, mean (% CV), n = 3
[5] = human, 60 mg/m2, berzosertib 60 mg/m^2 i.v., lead-in period, berzosertib alone, mean (% CV), n = 4
[6] = human, 72 mg/m2, berzosertib 72 mg/m^2 i.v., lead-in period, berzosertib alone, mean (% CV), n = 7
[7] = human, 90 mg/m2, berzosertib 90 mg/m^2 i.v., lead-in period, berzosertib alone, mean (% CV), n = 6
[8] = human, 140 mg/m2, berzosertib 140 mg/m^2 i.v., lead-in period, berzosertib alone, mean (% CV), n = 5
[9] = human, 210 mg/m2, berzosertib 210 mg/m^2 i.v., lead-in period, berzosertib alone, mean (% CV), n = 2

Compound: CNCc1ccc(-c2cc(-c3nc(-c4ccc(S(=O)(=O)C(C)C)cc4)cnc3N)on2)cc1 [Berzosertib]
- Dose proportionality of exposure ([1]; from 18 to 210 mg/m^2): approximately dose-proportional
- CL renal ([1]; human, intravenous, part A, urine, read-out: Mean renal clearance (converted)): 60 mL/min
- AUC(0-inf) [1, 3]: 351 ng·h/mL
- Cmax [1, 3]: 72 ng/mL
- clearance [1, 3]: 1640 mL/min
- Vd [1, 3]: 1600 L
- half-life ([1]; human, 18 mg/m2, berzosertib 18 mg/m^2 i.v., lead-in period, berzosertib alone, mean (% CV), n = 3, read-out: t½ (converted)): 14 h
- AUC(0-inf) [1, 4]: 913 ng·h/mL
- Cmax [1, 4]: 176 ng/mL
- clearance [1, 4]: 1500 mL/min
- Vd [1, 4]: 1280 L
- half-life ([1]; human, 36 mg/m2, berzosertib 36 mg/m^2 i.v., lead-in period, berzosertib alone, mean (% CV), n = 3, read-out: t½ (converted)): 14.2 h
- AUC(0-inf) [1, 5]: 1700 ng·h/mL
- Cmax [1, 5]: 345 ng/mL
- clearance [1, 5]: 1300 mL/min
- Vd [1, 5]: 1280 L
- half-life ([1]; human, 60 mg/m2, berzosertib 60 mg/m^2 i.v., lead-in period, berzosertib alone, mean (% CV), n = 4, read-out: t½ (converted)): 15 h
- AUC(0-inf) [1, 6]: 2280 ng·h/mL
- Cmax [1, 6]: 536 ng/mL
- clearance [1, 6]: 1040 mL/min
- Vd [1, 6]: 1040 L
- half-life ([1]; human, 72 mg/m2, berzosertib 72 mg/m^2 i.v., lead-in period, berzosertib alone, mean (% CV), n = 7, read-out: t½ (converted)): 15.2 h
- AUC(0-inf) [1, 7]: 2370 ng·h/mL
- Cmax [1, 7]: 451 ng/mL
- clearance [1, 7]: 1240 mL/min
- Vd [1, 7]: 1320 L
- half-life ([1]; human, 90 mg/m2, berzosertib 90 mg/m^2 i.v., lead-in period, berzosertib alone, mean (% CV), n = 6, read-out: t½ (converted)): 17.2 h
- AUC(0-inf) [1, 8]: 4550 ng·h/mL
- Cmax [1, 8]: 817 ng/mL
- clearance [1, 8]: 1010 mL/min
- Vd [1, 8]: 1150 L
- half-life ([1]; human, 140 mg/m2, berzosertib 140 mg/m^2 i.v., lead-in period, berzosertib alone, mean (% CV), n = 5, read-out: t½ (converted)): 17 h
- AUC(0-inf) [1, 9]: 6130 ng·h/mL
- Cmax [1, 9]: 808 ng/mL
- clearance [1, 9]: 1270 mL/min
- Vd [1, 9]: 1550 L
- half-life ([1]; human, 210 mg/m2, berzosertib 210 mg/m^2 i.v., lead-in period, berzosertib alone, mean (% CV), n = 2, read-out: t½ (converted)): 16.8 h
- half-life ([1]; human, i.v., 18–210 mg/m^2, read-out: Apparent terminal half-life (converted)): ~17 h
- PK when administered ~24 h after gemcitabine, with or without cisplatin, versus berzosertib alone ([1]; in vivo): not significantly different
- Mean percentage excreted in the urine ([1]; part A): 5%
- Accumulation ([1]; weekly administration): not observed
- Trends in laboratory results (serum chemistry, haematology, urinalysis), vital signs or ECG parameters attributable to treatment ([2]; in vivo): no clinically meaningful trends
- Patients with acute hypersensitivity ([2]; on second infusion of berzosertib, no clear relationship to dose): < 5%
- IC50 (ATR): 19 nM

From paper PMC8368196, “Phase 1 study of the ATR inhibitor berzosertib (formerly M6620, VX-970) combined with gemcitabine ± cisplatin in patients with advanced solid tumours” (British Journal of Cancer, 2021)
